{"source": "patent US9896663B2", "about": "“Leukaemia stem cell line, its method of production and uses thereof” (Peter MacCallum Cancer Institute, priority 2016, dated 2018)", "key": {"[1]": {"system": "L-GMPs from I-BET naive mice", "assay": "Clonogenic assay of sorted I-BET naive L-GMPs", "format": "cell-based, mouse", "settings": "1 μM I-BET; FIG. 2H", "description": "(§1) Clonogenic potential was assessed through colony growth of derived cell lines plated in cytokine supplemented methylcellulose (Methocult M3434, Stemcell Technologies). […] Gr1−/CD11b- and Gr1+/CD11b+ fractions of resistant cell lines were plated in duplicate following FACS sorting at a cell dose of between 2×10^2 and 2×10^3 cells per plate. […] Cells were incubated at 37° C. and 5% CO2 for 7 to 10 days at which time colonies were counted.\nImmunophenotype assessment for markers of committed differentiation was undertaken through staining with Alexa Fluor 700 anti-Gr-1 (108422, BioLegend) and Brilliant Violet 605 anti-CD11b (101237, BioLegend). Assessment of L-GMP populations was undertaken through staining with eFluor 660 anti-CD34 (50-0341-82, eBioscience), biotin lineage antibody cocktail (120-001-547, Miltenyi Biotec), PerCP/Cy5.5 anti-CD16/32 (101324, BioLegend), APC/Cy7 anti-CD117 (105826, BioLegend) and Pacific Blue anti-Ly-6A (122520, BioLegend) followed by secondary staining with V500 streptavidin (561419, BD Biosciences). […]"}, "[2]": {"system": "human AML patient derived xenograft", "assay": "Patient derived xenograft (PDX) model of AML", "format": "in vivo, NOD SCID gamma (NSG) mice", "settings": "I-BET 10 mg/kg for 2 weeks; FIG. 2G", "text": "Immunophenotype assessment for markers of committed differentiation was undertaken through staining with Alexa Fluor 700 anti-Gr-1 (108422, BioLegend) and Brilliant Violet 605 anti-CD11b (101237, BioLegend). Assessment of L-GMP populations was undertaken through staining with eFluor 660 anti-CD34 (50-0341-82, eBioscience), biotin lineage antibody cocktail (120-001-547, Miltenyi Biotec), PerCP/Cy5.5 anti-CD16/32 (101324, BioLegend), APC/Cy7 anti-CD117 (105826, BioLegend) and Pacific Blue anti-Ly-6A (122520, BioLegend) followed by secondary staining with V500 streptavidin (561419, BD Biosciences). Assessment of leukemic LMPP and GMP populations in patient derived xenografts was undertaken through staining with APC/Cy7 anti-mouse CD45.1 (110716, Biolegend), eFluor 450 anti-mouse Ter119 (48-5921-82, eBioscience), FITC anti-human CD45 (11-9459-42, eBioscience), BV711 anti-human CD38 (563965, BD Biosciences), PE anti-human CD90 (561970, BD Biosciences), PE-Cy5 anti-human CD123 (15-1239-41, eBioscience), PerCP-Cy5.5 anti-human CD45RA (45-0458-42), biotin anti-human CD3 (555338, BD Biosciences), biotin anti-human CD19 (555411, BD Biosciences), PE-Cy7 anti-human CD33 (333946, BD Biosciences) and APC anti-human CD34 (555824, BD Biosciences) followed by secondary staining with V500 streptavidin (561419, BD Biosciences). […]"}, "[3]": {"system": "I-BET resistant cells", "assay": "Clonogenic, apoptosis and cell cycle assays, I-BET resistant cells", "format": "cell-based, mouse", "settings": "FIG. 1D-F", "description": "as §1\n(§2) Cell apoptosis was assessed using APC conjugated Annexin V (550475, BD Biosciences) and propidium iodide (PI) (P4864, Sigma-Aldrich) staining according to manufacturer's instructions.\n(§3) For cell cycle analysis, cells were fixed overnight at −20° C. in 70% EtOH/PBS. Prior to flow cytometry analysis, cells were incubated at 37° C. for 30 minutes in PI staining solution (0.02 mg/mL PI, 0.05% v/v Triton-X in PBS, supplemented with DNase-free RNase A (19101, Qiagen) or incubated at room temperature for 10 minutes with 4′,6-diamidino-2-phenylindole (DAPI) staining solution (1 μg/ml DAPI, 0.05% v/v Triton-X in PBS)."}, "[4]": {"system": "MLL-AF9 AML, I-BET resistant cell line", "assay": "Syngeneic transplantation AML model, recipients of resistant cells, survival", "format": "in vivo, C57BL/6 mice", "settings": "identical treatment strategy; P=0.877, n=6, log-rank; FIG. 1I", "description": "(§4) Serial syngeneic transplantation studies of drug efficacy, generation of in vivo resistance and limit dilution analyses were performed with intravenous injection of between 10 to 2.5×10^6 cells per mouse obtained from bone marrow or spleen.\n(§5) Syngeneic transplantation studies were performed in C57BL/6 mice (wild type or expressing Ptprc^a). All mice were 6-10 weeks old at the time of sub-lethal irradiation (300 cGy) and intravenous cell injection. […] Mice were randomly assigned treatment groups; treatment administration was not blinded. Sample sizes were determined according to the resource equation method. Differences in Kaplan-Meier survival curves were analysed using the log-rank statistic."}, "[5]": {"system": "vehicle treated cells / I-BET naive bulk leukaemia cells", "assay": "Clonogenic, apoptosis and cell cycle assays, vehicle treated (I-BET naive) cells", "format": "cell-based, mouse", "description": "as §1, §2, §3"}, "[6]": {"system": "MLL-AF9 AML, parental cell line", "assay": "Syngeneic transplantation AML model, recipients of the parental cell line, survival", "format": "in vivo, C57BL/6 mice", "settings": "I-BET 20-30 mg/kg IP; P<0.01, n=6, log-rank; FIG. 1H", "description": "as §4, §5"}, "[7]": {"system": "Murine HSPCs transduced with MLL-AF9", "assay": "Selection of MLL-AF9 transduced HSPCs in cytokine-supplemented methylcellulose with I-BET (IC40)", "format": "cell-based, mouse", "source_text": "Initial generation of immortalised parental cell lines was achieved through magnetic bead selection (Miltenyi Biotec) of c-kit positive cells, obtained from whole bone marrow of male and female C57BL/6 mice, and subsequent retroviral transduction with either an MSCV-MLL-AF9-IRES-YFP or an MSCV-MLL-ENL construct.\nIndividual vehicle-treated or resistant colonies were picked and transferred to liquid culture to generate clonal cell lines. […] Vehicle-treated clones were also continuously maintained in 0.1% DMSO and passaged in identical fashion. The parental cell line was continuously maintained with no exposure to vehicle or drug."}, "[8]": {"system": "I-BET resistant clones", "assay": "Cell growth of I-BET resistant clones under JQ1", "format": "cell-based, mouse", "settings": "100 nM JQ1; FIG. 1C", "description": "Following 72 hour incubation, resazurin was added to each well and plates were further incubated for 3 hours. Fluorescence was then read at 560 nm/590 nm on a Cytation 3 Imaging Reader (BioTek). Cell counts were performed using a haemocytometer. Determination of in vitro synergy in proliferation assays was undertaken according to the method of Zhao et al. (2014, Journal of molecular screening, 19: 817-821)."}}}
{"smiles": "COc1cc2c(cc1-c1c(C)noc1C)ncc1[nH]c(=O)n([C@H](C)c3ccccn3)c12", "note": "[I-BET, I-BET 151]", "values": [{"measurement": "L-GMPs able to survive in clonogenic assay", "setting": "[1]", "value": "30-40%"}, {"measurement": "effect on leukemic LMPP population (hCD45 expression)", "setting": "[2]", "value": "enriches for the leukemic LMPP population"}, {"measurement": "I-BET mediated suppression of clonogenic capacity, induction of apoptosis and cell cycle arrest", "setting": "[3]", "value": "impervious"}, {"measurement": "survival", "setting": "[4]", "value": "survival advantage is abrogated"}, {"measurement": "clonogenic potential", "setting": "[5]; 1 μM I-BET, I-BET naive bulk leukaemia cells, FIG. 1D", "value": "virtually eradicates"}, {"measurement": "I-BET mediated suppression of clonogenic capacity, induction of apoptosis and cell cycle arrest", "setting": "[5]; vehicle treated cells, FIG. 1D-F", "value": "exquisitely sensitive"}, {"measurement": "survival", "setting": "[6]", "value": "significant survival advantage"}, {"measurement": "IC40", "setting": "[7]", "value": 400, "unit": "nM"}]}
{"smiles": "Cc1sc2c(c1C)C(c1ccc(Cl)cc1)=N[C@@H](CC(=O)OC(C)(C)C)c1nnc(C)n1-2", "note": "[JQ1]", "values": [{"measurement": "resistance of I-BET resistant clones to JQ1", "setting": "[8]", "value": "cross-resistance"}]}
